{
  "source": "patent US20220031684A1",
  "about": "“PROPHYLACTIC EFFICACY OF SEROTONIN 4 RECEPTOR AGONISTS AGAINST STRESS” (THE TRUSTEES OF COLUMBIA UNIVERSITY IN THE CITY OF NEW YORK, priority 2019, published 2022)",
  "key": {"C57BL/6NTac mice": {"test_system": "C57BL/6NTac mice", "experiment": "Adverse side effects of chronic administration", "type": "in vivo", "experimental": "This chronic CORT elevation dysregulates the hypothalamic-pituitary-adrenal axis (HPA) in a manner similar to that observed in clinical depression. The dose and duration of CORT treatment was selected based on previous studies. CORT (35 μg/ml, equivalent to about 5 mg/kg/day) dissolved in 0.45% hydroxypropyl-o-cyclodextrin (0-CD) or vehicle (VEH) (0.45% j-CD) was available ad libitum in the drinking water in opaque bottles to protect it from light. VEH- and CORT-treated water was changed every 3 days to prevent possible degradation. Contextual Fear Conditioning (CFC): A 3-shock CFC procedure was administered as previously published. Briefly, mice were placed into context A and administered 3 2-s shocks (0.75 mA) at 180 s, 240 s or 300 s following placement into context A. Mice were removed from the context 15 s following the termination of shock (at 317 s). For context retrieval, mice were placed back into context A for 300 s. Electrophysiology: Electrophysiology was conducted as previously described. Statistical Analysis: Results from data analyses are expressed as means±SEM. Alpha was set to 0.05 for all analyses. Data were analyzed using GraphPad Prism v7.0 or v8.0. For all experiments, unless otherwise noted, one- or two-way ANOVAs with repeated-measures were applied to the data as appropriate. […] Videos were scored using ANY-maze behavior tracking software (Stoelting, Wood Dale, Ill.). […]"}, "129S6/SvEv mice": {"test_system": "129S6/SvEv mice", "experiment": "3-shock contextual fear conditioning (CFC)", "type": "in vivo", "settings": "for p value, CFC Re-exposure Average Freezing (%), Fisher's LSD: FIG. 2D; for freezing at re-exposure to the training context (learned fear) vs saline: re-exposure 5 days later", "experimental": "This chronic CORT elevation dysregulates the hypothalamic-pituitary-adrenal axis (HPA) in a manner similar to that observed in clinical depression. The dose and duration of CORT treatment was selected based on previous studies. CORT (35 μg/ml, equivalent to about 5 mg/kg/day) dissolved in 0.45% hydroxypropyl-o-cyclodextrin (0-CD) or vehicle (VEH) (0.45% j-CD) was available ad libitum in the drinking water in opaque bottles to protect it from light. VEH- and CORT-treated water was changed every 3 days to prevent possible degradation. Contextual Fear Conditioning (CFC): A 3-shock CFC procedure was administered as previously published. Briefly, mice were placed into context A and administered 3 2-s shocks (0.75 mA) at 180 s, 240 s or 300 s following placement into context A. Mice were removed from the context 15 s following the termination of shock (at 317 s). For context retrieval, mice were placed back into context A for 300 s. Electrophysiology: Electrophysiology was conducted as previously described. Statistical Analysis: Results from data analyses are expressed as means±SEM. Alpha was set to 0.05 for all analyses. Data were analyzed using GraphPad Prism v7.0 or v8.0. For all experiments, unless otherwise noted, one- or two-way ANOVAs with repeated-measures were applied to the data as appropriate. Significant main effects and/or interactions were followed by Fisher's PLSD post hoc analysis or unpaired t-tests. Drugs: All drugs were prepared in physiological saline and all injections were administered intraperitoneally (i.p.) in volumes of 0.1 cc per […] body weight unless otherwise noted. Fluoxetine hydrochloride (Flx): Flx (BioTrend Chemicals AG, BG197, Zurich, Germany) was administered in the drinking water (18 mg/kg/day) for 3 weeks before the start of CORT. […] (R,S)-ketamine (K): (R,S)-ketamine (Ketaset III, Ketamine HCl injection, Fort Dodge Animal Health, Fort Dodge, Iowa) was administered in a single dose at 30 mg/kg of body weight 1 week before the start of CFC. […] PF-04995274: PF-04995274 (Sigma, Catalog No. 1331782-27-4, St. Louis, Mo.) was administered a single dose at 3 or 10 mg/kg of body weight 1 week before the start of CFC. PF-04995274 was dissolved in saline using an ultrasonic homogenizer (BioLogics, Model 3000, Manassas, Va.). Osmotic minipump implantation: ALZET osmotic minipumps (Model 2004, […], 28 days) were implanted subcutaneously under isoflurane anesthesia as previously described [S2]. Osmotic minipumps were rotated under the skin two to three times per week. Behavioral Assays: All experiments were approved by the Institutional Animal Care and Use Committee (IACUC) at the New York Psychiatric Institute (NYSPI). Elevated Plus Maze (EPM): Testing was performed as previously described [S3]. Briefly, the maze is a plus-cross-shaped apparatus consisting of four arms, two open and two enclosed by walls, linked by a central platform at a height of 50 cm from the floor. Mice were individually placed in the center of the maze facing an open arm and were allowed to explore the maze for 5 min. The time spent in and the number of entries into the open arms was used as an anxiety index. Videos were scored using ANY-maze behavior tracking software (Stoelting, Wood Dale, Ill.). Novelty-Suppressed Feeding: The NSF is a conflict test that elicits competing motivations: the drive to eat and the fear of venturing into the center of a brightly lit arena. The latency to feed is used as an index of anxiety-like behavior, because classical anxiolytic drugs decrease this measure. The NSF test was carried out during an 8 min period as previously described [S3]. Briefly, the testing apparatus consisted of a plastic box (50×50×20 cm), the floor of which was covered with approximately 2 cm of bedding. For 129S6/SvEv experiments, mice were food restricted for 12 h. For the C57BL/6N experiments, mice were food restricted for 24 h. […]"}, "sigma 2": {"target": "sigma 2 (Homo sapiens, UniProt Q5BJF2)", "sequence (Q5BJF2 whole entry)": "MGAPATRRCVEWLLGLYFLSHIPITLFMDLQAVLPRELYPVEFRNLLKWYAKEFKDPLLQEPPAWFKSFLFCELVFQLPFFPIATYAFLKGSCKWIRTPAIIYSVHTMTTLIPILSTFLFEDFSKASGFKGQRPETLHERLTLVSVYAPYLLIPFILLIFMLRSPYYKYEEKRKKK", "settings": "cited from earlier work"}, "[1]": {"settings": "FIG. 3 Acute RS67333 cohort, FIG. 3B, Fisher's PLSD"}},
  "data": [
    {"smiles": "CCCCN1CCC(CCC(=O)c2cc(Cl)c(N)cc2OC)CC1.Cl", "note": "[RS-67,333, 1-(4-amino-5-chloro-2-methoxyphenyl)-3-[1(n-butyl)-4-piperidinyl]-1-propanone HCl]", "values": [
      {"measurement": "adverse side effects", "setting": "C57BL/6NTac mice", "value": "did not result in adverse side effects"},
      {"measurement": "p value, CFC Re-exposure Average Freezing (%), Fisher's LSD", "setting": "129S6/SvEv mice; RS67333 (1.5 mg/kg) vs. (second group beyond the rows shown)", "value": 0.3259},
      {"measurement": "p value, CFC Re-exposure Average Freezing (%), Fisher's LSD", "setting": "129S6/SvEv mice; RS67333 (1.5 mg/kg) vs. RS67333 (10 mg/kg)", "value": 0.8278},
      {"measurement": "p value, CFC Re-exposure Average Freezing (%), Fisher's LSD", "setting": "129S6/SvEv mice; Saline vs. RS67333 (1.5 mg/kg)", "value": 0.0185},
      {"measurement": "p value, CFC Re-exposure Average Freezing (%), Fisher's LSD", "setting": "129S6/SvEv mice; Saline vs. RS67333 (10 mg/kg)", "value": 0.0006},
      {"measurement": "p value, CFC Re-exposure Average Freezing (%), Fisher's LSD", "setting": "129S6/SvEv mice; Saline vs. RS67333 (30 mg/kg)", "value": 0.2625},
      {"measurement": "p, RS67333 (10 mg/kg) vs. RS67333 (30 mg/kg)", "setting": "129S6/SvEv mice; FIG. 2 cohort, post-hoc comparison, measurement head lies above the shown rows (block before FST)", "value": 0.3050},
      {"measurement": "p, CFC Trainging Freezing (%), RS67333 (1.5 mg/kg) vs. RS67333 (10 mg/kg)", "setting": "129S6/SvEv mice; [1]", "value": 0.3858},
      {"measurement": "p, CFC Trainging Freezing (%), Saline vs. RS67333 (1.5 mg/kg)", "setting": "129S6/SvEv mice; [1]", "value": 0.0941},
      {"measurement": "p, CFC Trainging Freezing (%), Saline vs. RS67333 (10 mg/kg)", "setting": "129S6/SvEv mice; [1]", "value": 0.0076},
      {"measurement": "p, CFC Training Freezing (min 1), RS67333 (1.5 mg/kg) vs. RS67333 (10 mg/kg)", "setting": "129S6/SvEv mice; FIG. 3 cohort, Fisher's PLSD", "value": 0.9715},
      {"measurement": "p, CFC Training Freezing (min 1), Saline vs. RS67333 (1.5 mg/kg)", "setting": "129S6/SvEv mice; FIG. 3 cohort, Fisher's PLSD", "value": 0.8847},
      {"measurement": "p, CFC Training Freezing (min 1), Saline vs. RS67333 (10 mg/kg)", "setting": "129S6/SvEv mice; FIG. 3 cohort, Fisher's PLSD", "value": 0.9054},
      {"measurement": "p, CFC Training Freezing (min 3), RS67333 (1.5 mg/kg) vs. RS67333 (10 mg/kg)", "setting": "129S6/SvEv mice; FIG. 3 cohort, Fisher's PLSD", "value": 0.8746},
      {"measurement": "p, CFC Training Freezing (min 3), Saline vs. RS67333 (1.5 mg/kg)", "setting": "129S6/SvEv mice; FIG. 3 cohort, Fisher's PLSD", "value": 0.8999},
      {"measurement": "p, CFC Training Freezing (min 3), Saline vs. RS67333 (10 mg/kg)", "setting": "129S6/SvEv mice; FIG. 3 cohort, Fisher's PLSD", "value": 0.9721},
      {"measurement": "p, CFC Training Freezing (min 4), RS67333 (1.5 mg/kg) vs. RS67333 (10 mg/kg)", "setting": "129S6/SvEv mice; FIG. 3 cohort, Fisher's PLSD", "value": 0.7882},
      {"measurement": "p, CFC Training Freezing (min 4), Saline vs. RS67333 (1.5 mg/kg)", "setting": "129S6/SvEv mice; FIG. 3 cohort, Fisher's PLSD", "value": 0.0168},
      {"measurement": "p, CFC Training Freezing (min 4), Saline vs. RS67333 (10 mg/kg)", "setting": "129S6/SvEv mice; FIG. 3 cohort, Fisher's PLSD", "value": 0.0040},
      {"measurement": "p, CFC Training Freezing (min 5), RS67333 (1.5 mg/kg) vs. RS67333 (10 mg/kg)", "setting": "129S6/SvEv mice; FIG. 3 cohort, Fisher's PLSD", "value": 0.0492},
      {"measurement": "p, CFC Training Freezing (min 5), Saline vs. RS67333 (1.5 mg/kg)", "setting": "129S6/SvEv mice; FIG. 3 cohort, Fisher's PLSD", "value": 0.0117},
      {"measurement": "p, CFC Training Freezing (min 5), Saline vs. RS67333 (10 mg/kg)", "setting": "129S6/SvEv mice; FIG. 3 cohort, Fisher's PLSD", "value": "<0.0001"},
      {"measurement": "p, CFC Training freezing (min 2), RS67333 (1.5 mg/kg) vs. RS67333 (10 mg/kg)", "setting": "129S6/SvEv mice; FIG. 3 cohort, Fisher's PLSD", "value": 0.9854},
      {"measurement": "p, CFC Training freezing (min 2), Saline vs. RS67333 (1.5 mg/kg)", "setting": "129S6/SvEv mice; FIG. 3 cohort, Fisher's PLSD", "value": 0.8966},
      {"measurement": "p, CFC Training freezing (min 2), Saline vs. RS67333 (10 mg/kg)", "setting": "129S6/SvEv mice; FIG. 3 cohort, Fisher's PLSD", "value": 0.8719},
      {"measurement": "freezing at re-exposure to the training context", "setting": "129S6/SvEv mice; female 129S6/SvEv, 1.5 or 10 mg/kg vs saline, 5 days after CFC", "value": "comparable levels of freezing"},
      {"measurement": "freezing during CFC training", "setting": "129S6/SvEv mice; female 129S6/SvEv, single injection 1 week before CFC, 1.5 or 10 mg/kg vs saline", "value": "comparable levels of freezing"},
      {"measurement": "freezing during CFC training vs saline", "setting": "129S6/SvEv mice; male 129S6/SvEv, single i.p. injection 1 week before CFC, 30 mg/kg", "value": "significantly less freezing"},
      {"measurement": "freezing at re-exposure to the training context (learned fear) vs saline", "setting": "129S6/SvEv mice; male 129S6/SvEv, single i.p. injection 1 week before CFC, 1.5 mg/kg", "value": "significantly less freezing"},
      {"measurement": "freezing at re-exposure to the training context (learned fear) vs saline", "setting": "129S6/SvEv mice; male 129S6/SvEv, single i.p. injection 1 week before CFC, 10 mg/kg", "value": "significantly less freezing"},
      {"measurement": "pKi sigma 2", "setting": "sigma 2", "value": 8.0}
    ]}
  ]
}
